According to ChEMBL document CHEMBL6127044, “An insight into G-quadruplexes: Identification and potential therapeutic targets in livestock viruses” (Eur J Med Chem, 2024):

Tested on: SARS-CoV-2
Assay: Antiviral activity against SARS-CoV-2 Wuhan 5-2N variant infected in African green monkey Vero E6 cells measured 3 days post infection by WST-8 assay
Type: functional, organism-based
Conditions: Severe acute respiratory syndrome coronavirus 2, Wuhan 5-2N, Vero C1008, 72 h

Question: CCc1c(C)c2cc3nc(cc4nc(cc5c(CC)c(C)c(cc1[nH]2)n5C)C(C)=C4CCC(=O)O)C(CCC(=O)O)=C3C was tested. Which EC50 did it give?
Answer: 1.16 nM
